For one data set, the system named is 451 kinase types. Nature of the data set: KINOMEscan Assay Panel broad kinase screen. The format is binding, human. The settings on record: screen against 451 kinase types. Here is the method: The kinase selectivity of a representative disclosed compound, compound 3 (N-(3-(6-((3-morpholinophenyl)amino)-1H-pyrazolo[3,4-d]pyrimidin-4-yl)phenyl)acrylamide), which corresponds to compound 3 in Table I, was evaluated in multiple kinase assays. A broad based screen was conducted against 451 kinase types using the KINOMEscan Assay Panel. The results were able to map 14 interactions with an S-Score(35)=0.03. The interactions are highlighted in FIG. 4 (panels A and B), and are indicated by the dark circles in the figure.

A short description of a further data set: Plasma stability assay. The format is in vitro ADME. On the set-up: half-life: dose or concentration left out as unconfirmed. Here is the method:
The representative compound, compound 3, was also assessed in a plasma stability assay. Briefly, the compound was present at a concentration […] in plasma from three mammalian species (human, rat, and mouse). The concentration of intact drug (i.e. unmodified drug) at the indicated time points was determined using a LC-MS/MS assay. The data are consistent with good drug stability under the conditions tested.

Data set [1] deals with T1, recombinant full-length human BTK kinase (Homo sapiens, UniProt Q06187).
T1 construct: recombinant full-length human BTK kinase with a (His)6 tag; (His)6; purchased Invitrogen Corporation, Carlsbad, Calif
T1 sequence (Q06187 whole entry): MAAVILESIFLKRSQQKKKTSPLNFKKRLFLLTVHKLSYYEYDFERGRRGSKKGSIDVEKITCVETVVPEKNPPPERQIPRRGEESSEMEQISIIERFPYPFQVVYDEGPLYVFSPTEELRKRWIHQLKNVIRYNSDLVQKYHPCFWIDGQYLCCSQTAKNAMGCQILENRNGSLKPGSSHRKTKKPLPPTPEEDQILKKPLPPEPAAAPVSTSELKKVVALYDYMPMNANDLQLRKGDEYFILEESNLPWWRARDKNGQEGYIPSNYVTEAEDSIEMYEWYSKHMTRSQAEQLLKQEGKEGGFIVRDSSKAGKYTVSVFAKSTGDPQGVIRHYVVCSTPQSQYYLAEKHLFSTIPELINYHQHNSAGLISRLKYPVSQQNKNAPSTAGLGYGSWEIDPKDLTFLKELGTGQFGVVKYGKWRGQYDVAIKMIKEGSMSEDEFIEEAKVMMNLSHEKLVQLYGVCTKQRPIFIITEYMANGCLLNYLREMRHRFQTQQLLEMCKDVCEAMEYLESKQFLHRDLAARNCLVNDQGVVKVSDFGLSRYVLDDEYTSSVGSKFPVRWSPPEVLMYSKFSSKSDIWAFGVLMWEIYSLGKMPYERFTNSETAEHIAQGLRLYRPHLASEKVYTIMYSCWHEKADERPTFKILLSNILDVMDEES
Nature of the data set: BTK kinase assay: ADP generation assay (ADP-Glo). Type of data set: biochemical. The settings on record: 60 nM BTK, MBP substrate, 60 min. Here is the method:
The primary assay for compound inhibitory activity was the ADP generation assay described herein. Test compounds were diluted to desired concentrations in kinase reaction buffer and briefly incubated with recombinant full-length human BTK kinase with a (His)6 tag (81.3 kDa; Invitrogen Corporation, Carlsbad, Calif.). The assay as described is based on volumes used in a standard 384 well format using solid, white-wall plates. The reaction was subsequently initiated by the addition of ATP and myelin basic protein (MBP) substrate (Millipore Corporation, Waltham, Mass.). Composition of the assay reaction mixture ([…]) was: 5% v/v DMSO, 60 nM BTK, 1.6 µM ATP, and 20 µM MBP substrate. After incubation at room temperature for 60 min, […] (Promega Corporation, Madison, Wis.) was added to each well and incubated for an additional 40 minutes. The reagent stopped the kinase reaction and depleted the unconsumed ATP. Kinase Detection reagent ([…]; Promega Corporation) was then added to each well. The Kinase Detection reagent comprises reagents to convert ADP to ATP and provide luciferase and luciferin to detect ATP. Luminescence was measured on an EnVision microplate reader (PerkinElmer). The amount of luminescence from each reaction is directly correlated with BTK kinase activity. Percent inhibition and IC50 values were calculated by comparing enzyme activity in drug-treated wells to the appropriate controls.
IC50 values are determined using GraphPad Prism 5 software. The data were entered as an X-Y plot into the software as percent inhibition for each concentration of the drug. The concentration values of the drug were log transformed and the nonlinear regression was carried out using the “sigmoidal dose-response (variable slope)” option within the GraphPad software to model the data and calculate IC50 values. The IC50 values reported are the concentration of drug at which 50% inhibition was reached.
Activity (IC50) was determined in the BTK assays describe herein below, i.e. either the ADP generation assay and/or the time-resolved FRET assay, and the data are shown in Table III. The compound number corresponds to the compound numbers used in Table I. In the table below, “ADP Assay” refers to the assay which measures production of ADP resulting from use of ATP by the kinase; and “HTRF Assay” refers to the time resolved-FRET kinase assay described in the examples. Multiple values in a given column indicate the results of more than one assay for the given compound. Representative data of the type used to determine the IC50 values for the ADP assay in Table III are shown in FIG. 8 for compounds 3, 4, and 5.

Where “and” joins values, the source holds several entries; their conditions need not be identical. Equal values may be shown once. Where only a bound is given, the exact number is not on record here.

`C=CC(=O)Nc1cccc(-c2nc(Nc3cccc(N4CCOCC4)c3)nc3[nH]ncc23)c1` [Compound 3, N-(3-(6-((3-morpholinophenyl)amino)-1H-pyrazolo[3,4-d]pyrimidin-4-yl)phenyl)acrylamide]: the “Number of interactions mapped” value in the data set with 451 kinase types is 14. Further, the “S-Score(35)” value in the data set on 451 kinase types amounted to 0.03. In addition, the half-life in the data set “Plasma stability assay” (human plasma), in “Plasma stability assay” (mouse plasma) and in “Plasma stability assay” (rat plasma) was > 2 h in each case. The “Compound Remaining” value in “Plasma stability assay” (human plasma, 0 min) is listed as 100 % of initial amount; in “Plasma stability assay” (human plasma, 15 min), 90.1 % of initial amount; in the data set “Plasma stability assay” (human plasma, 30 min), 99.6 % of initial amount; in the data set “Plasma stability assay” (human plasma, 60 min) it was 91.3 % of initial amount; in “Plasma stability assay” (human plasma, 120 min), 78.6 % of initial amount; in the data set “Plasma stability assay” (mouse plasma, 0 min) it was 100 % of initial amount. The “Compound Remaining” value was 100 % of initial amount in the data set “Plasma stability assay” (mouse plasma, 15 min); 101 % of initial amount in the data set “Plasma stability assay” (mouse plasma, 30 min); 85.8 % of initial amount in “Plasma stability assay” (mouse plasma, 60 min); 91.7 % of initial amount in “Plasma stability assay” (mouse plasma, 120 min); 100 % of initial amount in “Plasma stability assay” (rat plasma, 0 min); 95.2 % of initial amount in the data set “Plasma stability assay” (rat plasma, 15 min). Further, the “Compound Remaining” value in the data set “Plasma stability assay” (rat plasma, 30 min) is reported as 92.9 % of initial amount; in the data set “Plasma stability assay” (rat plasma, 60 min), 80.2 % of initial amount; in “Plasma stability assay” (rat plasma, 120 min) it was 55.9 % of initial amount. Besides, the IC50 in data set [1] is 5 nM and 6 nM and 8 nM.

For the origin of these results see patent US20150252048A1, “SUBSTITUTED N-(3-PYRIMIDIN-4-YL)PHENYL)ACRYLAMIDE ANALOGS AS TYROSINE RECEPTOR KINASE BTK INHIBITORS” (UNIVERSITY OF UTAH RESEARCH FOUNDATION, priority 2012, published 2015).
